According to US10076533B2, “Acyclic nucleoside phosphonate diesters” (The Regents of the University of California, priority 2013, dated 2018):
Read-outs that look alike come from different tables or passages of the source.

Columns and labels:
Hepatitis B virus = test: HBV replication in 2.2.15 cells, HBV DNA blot hybridization; conditions: for EC50: Hepatitis B virus, 168 h; for Selectivity Index: hepatitis B virus, 2.2.15 cells
[1] = Cytotoxicity in MT-2 cells, flow cytometry cell counts and viability; assay type: cell-based, human; conditions: human; MT-2 cells, 72 hrs
Method: (§1) MT-2 cells were incubated with drug for 72 hrs and harvested. Flow count beads (Beckman Coulter, Miami, Fla.) were added to the cell suspension followed by propidium iodide staining and analysis using flow cytometer and the 50% cytotoxic concentration (CC50) was calculated from the cell counts and viability.

[2] = African green monkey
[3] = Toxicity in HEK 293 cells by trypan blue exclusion (HPV-11 example); assay type: cell-based; conditions: human
Method: (§2) An origin-containing plasmid was co-transfected with HPV-11 E1 and E2 protein expression vectors into HEK 293 cells. At 4 hr post-transfection, cells were treated with compound dilutions and the cells were incubated for 48 hr. Replication of the virus origin was detected with DpnI and exonuclease III to remove unreplicated input bacterial plasmid DNA. Remaining replicated DNA was quantified by qPCR. Toxicity was determined by trypan blue exclusion.

Caski (HPV-16) = test: Antiproliferative activity, neutral red, Caski cervical cancer cells; conditions: for CC50: Homo sapiens, Ca-Ski, 96 h, read-out: Cytotoxic concentration 50% (CC50) Caski (HPV-16); for fold more effective in reducing viable cell number in the cervical cancer lines than in normal, non-transformed human fibroblasts: cervical cancer lines (Caski, Hela) vs HFF
[4] = Cytotoxicity in HFF cells in parallel to cytomegalovirus assay; conditions: human
MAD-1 strain of JC virus = test: Antiviral effect in JC virus (MAD-1) infected COS7 cells, qPCR; conditions: for Selectivity Index: JC virus (MAD-1), COS7 cells
in vitro [5] = conditions: human
HPV-18 = test: Antiviral effect in HPV-18 infected primary human keratinocyte rafts, qPCR; conditions: for Selectivity Index: HPV-18 keratinocyte rafts; for EC50: Homo sapiens, Keratinocyte
[6] = human
[7] = Cytotoxicity in HFF cells in parallel to HSV-2 assay; conditions: human, […]
HPV-11 = HPV-11 origin replication in HEK 293 cells, qPCR; assay type: cell-based; conditions: for EC50: HPV-11 origin replication in HEK 293 cells, 48 hr, qPCR; for Selectivity Index: HPV-11, HEK 293 cells
Method: as §2

Hela (HPV-18) = test: Antiproliferative activity, neutral red, Hela cervical cancer cells; conditions: Homo sapiens, 96 h, read-out: Cytotoxic concentration 50% (CC50) Hela (HPV-18)
[8] = system: AD169 strain of human cytomegalovirus; test: Antiviral effect in HFF cells infected with human cytomegalovirus (AD169); conditions: for Selectivity Index: human cytomegalovirus (AD169), HFF cells
[9] = Cytotoxicity in 2.2.15 cells by neutral red uptake; conditions: human
HIV-192US727 = test: Anti-HIV assay in human PBMC, supernatant reverse transcriptase activity; conditions: for Selectivity Index: HIV-192US727, human PBMC
[10] = Antiproliferative activity, neutral red, normal human fibroblasts
[11] = Toxicity in HEK 293 cells by trypan blue exclusion (HPV-16 example); assay type: cell-based; conditions: human
Method: as §2, with “HPV-16” for “HPV-11”

[12] = Cytotoxicity in HFF cells in parallel to HSV-1 assay; conditions: human
[13] = system: Copenhagen strain of vaccinia virus; test: microbe, parasite or virus in culture; assay type: cell-based; conditions: for Selectivity Index: vaccinia virus (Copenhagen), HFF cells
[14] = system: BK virus (Gardner strain); test: Antiviral effect in HFF cells infected with BK virus (Gardner strain), qPCR; conditions: for Selectivity Index: BK virus (Gardner strain), HFF cells
HPV-16 = HPV-16 origin replication in HEK 293 cells, qPCR; assay type: cell-based; conditions: for EC50: HEK293, HPV-16 origin replication in HEK 293 cells, 48 hr, qPCR, read-out: EC50; for Selectivity Index: HPV-16, HEK 293 cells
Method: as §2, with “HPV-16” for “HPV-11”

HIV-1LAI = test: HIV antiviral assay in MT-2 cells, p24 reduction; conditions: for Selectivity Index: CC50/EC50, MT-2 cells
[15] = Toxicity in primary human keratinocyte raft cultures by histology
[16] = Viability of PBMC by XTT reduction; conditions: human, PHA-stimulated human PBMCs
MT-2 cells = test: Cytotoxicity in MT-2 cells, flow cytometry cell counts and viability; assay type: cell-based, human
Method: as §1

COS7 cells = conditions: uninfected COS7 cells, […]
HEK 293 cells = test: Toxicity in HEK 293 cells by trypan blue exclusion (HPV-11 example); assay type: cell-based
Method: as §2

[17] = system: human foreskin fibroblast (HFF) cells
[18] = system: human foreskin fibroblast (HFF) cells; test: Cytotoxicity in HFF cells in parallel to cytomegalovirus assay; conditions: HFF cells, in parallel to cytomegalovirus assay
[19] = system: human foreskin fibroblast (HFF) cells; conditions: uninfected HFF cells, […]
[20] = system: human foreskin fibroblast (HFF) cells; test: Cytotoxicity in HFF cells in parallel to HSV-2 assay; conditions: HFF cells
[21] = system: human foreskin fibroblast (HFF) cells; test: Cytotoxicity in HFF cells in parallel to HSV-1 assay; conditions: HFF cells, in parallel to HSV-1 assay
[22] = system: Human peripheral blood monocyte (PBMC); test: Viability of PBMC by XTT reduction; conditions: human PBMC, XTT reduction
[23] = Effect of oral compounds on body weight in Balb-c mice; assay type: in vivo; conditions: for body weight Day 0: before dosing
Method: Compounds were administered at the indicated doses by oral gavage daily for 5 days. Weights measured before and on day 6 after 5 doses.

in vitro [24] = conditions: human; remark: listed apart in the source
[25] = Human betaherpesvirus 5, AD169, HFF, 336 h
[26] = Human immunodeficiency virus 1, PBMC, 168 h
[27] = normal human fibroblasts (HFF), monolayer culture
[28] = Orthopoxvirus vaccinia, HFF, 168 h
[29] = Betapolyomavirus hominis, HFF, 336 h
[30] = Human immunodeficiency virus 1, MT2, 96 h

## CCCCCCCCCCCCCCCCCCOCCOP(=O)(CO[C@H](CO)Cn1cnc2c(N)ncnc21)OCc1ccccc1 (stereo partly drawn) [Compound 218, benzyl octadecyloxyethyl 9-(S)-[3-hydroxy-2-(phosphonomethoxy)propyl] adenine]
Hepatitis B virus
  EC50: 760 nM
  Selectivity Index: >132
[1]
  CC50 at 72 h: 2300 ± 1600 nM
[2]; uninfected COS7 cells
  CC50 at 7 days: 10200 nM
[3]
  CC50 at 48 h: > 100000 nM
Caski (HPV-16)
  CC50: 55 nM
[4]; […]
  CC50 at 14 days: 7490 nM
MAD-1 strain of JC virus; JC polyomavirus, COS-7, 168 h
  EC50: > 4000 nM
MAD-1 strain of JC virus
  Selectivity Index: <2.6
In vitro [5]
  CC50: > 100000 nM
HPV-18
  Selectivity Index: >39
  EC50: 250 nM
[6]
  CC50 at 14 days: 2800 nM
[7]
  CC50 at 3 days: 6910 nM
HPV-11; HEK293
  EC50: 770 nM
HPV-11
  Selectivity Index: >370
Hela (HPV-18)
  CC50: 29 nM
[8]; [25]
  EC50: < 30 nM
[8]
  Selectivity Index: >250
[9]
  CC50 at 7 days: > 100000 nM
HIV-192US727
  Selectivity Index: >23.0
HIV-192US727; [26]
  EC50: < 10 nM
[10]; [27]
  CC50 at 4 days: 5200 nM
[11]
  CC50 at 48 h: > 10000 nM
[12]; […]
  CC50 at 3 days: 14500 nM
[13]; [28]
  EC50: < 30 nM
[13]
  Selectivity Index: >3330
[14]
  Selectivity Index: >93
[14]; [29]
  EC50: < 30 nM
HPV-16
  EC50: 240 nM
  Selectivity Index: >41.7
HIV-1LAI; [30]
  EC50: 130 ± 140 nM
[15]
  CC50: > 10000 nM
[16]
  CC50 at 7 days: 230 nM

## CCCCCCCCCCCCCCCCCCOC[C@H](COP(=O)(CO[C@H](CO)Cn1ccc(N)nc1=O)OCc1ccccc1)OCc1ccccc1 (stereo partly drawn) [Compound 231, benzyl 1-O-octadecyl-2-O-benzyl-sn-glyceryl 1-(S)-[3-hydroxy-2-(phosphonomethoxy)propyl]cytosine]
MT-2 cells; MT-2 cells, 72 hrs, read-out: CC50
  CC50: 22000 ± 3000 nM
COS7 cells
  CC50: 62600 nM
HEK 293 cells
  CC50: > 10000 nM
[17]
  CC50: > 100000 nM
[18]
  CC50: 19000 nM
MAD-1 strain of JC virus; COS7 cells infected with JC virus (MAD-1), 7 days, qPCR
  EC50: > 20000 nM
[19]
  CC50: 13300 nM
[20]
  CC50: 34800 nM
HPV-11
  EC50: 1560 nM
[8]; HFF cells infected with human cytomegalovirus (AD169), 14 days, crystal violet
  EC50: < 30 nM
HIV-192US727; HIV-192US727 infected human PBMC, 7 days, supernatant reverse transcriptase activity
  EC50: < 300 nM
[21]
  CC50: 88300 nM
[13]; HFF cells infected with vaccinia virus (Copenhagen), 7 days, crystal violet, read-out: EC50
  EC50: 230 nM
[14]; HFF cells infected with BK virus (Gardner strain), 14 days, qPCR
  EC50: < 30 nM
HIV-1LAI
  Selectivity Index: 10
HIV-1LAI; HIV-1 infected MT-2 cells, p24 reduction, four days
  EC50: 2200 ± 2100 nM
[22]
  CC50: 19000 nM

## CCCCCCCCCCCCCCCCCCOCCOP(=O)(CO[C@H](CO)Cn1ccc(N)nc1=O)OCc1ccccc1 (stereo partly drawn) [Compound 219, benzyl octadecyloxyethyl 1-(S)-[(3-hydroxy-2-phosphonomethoxy)propyl]cytosine]
Hepatitis B virus
  EC50: 450 nM
  Selectivity Index: >223
[1]
  CC50 at 72 h: 18000 ± 3600 nM
[2]; uninfected COS7 cells
  CC50 at 7 days: 12800 nM
[3]
  CC50 at 48 h: > 10000 nM
Caski (HPV-16)
  CC50: 2000 nM
  fold more effective in reducing viable cell number in the cervical cancer lines than in normal, non-transformed human fibroblasts: 23.6 fold
[4]; […]
  CC50 at 14 days: 84200 nM
[23]; 20 mg/kg/day oral gavage daily for 5 days
  body weight Day 6: 19.27 ± 1.32 (6)
[23]; 20 mg/kg/day oral gavage
  body weight Day 0: 19.03 ± 1.16 (6)
MAD-1 strain of JC virus; JC polyomavirus, COS-7, 168 h
  EC50: > 4000 nM
MAD-1 strain of JC virus
  Selectivity Index: <3.2
In vitro [5]
  CC50: > 100000 nM
HPV-18
  Selectivity Index: >9.4
  EC50: 1060 nM
[6]
  CC50 at 14 days: 6540 nM
[7]
  CC50 at 3 days: 13100 nM
HPV-11; HEK293
  EC50: 2040 nM
HPV-11
  Selectivity Index: >4.9
Hela (HPV-18)
  CC50: 2200 nM
[8]; [25]
  EC50: < 30 nM
[8]
  Selectivity Index: >2807
[9]
  CC50 at 7 days: > 100000 nM
HIV-192US727
  Selectivity Index: >28.7
HIV-192US727; [26]
  EC50: < 100 nM
[10]; [27]
  CC50 at 4 days: 52000 nM
[11]
  CC50 at 48 h: > 10000 nM
[12]; […]
  CC50 at 3 days: 19300 nM
[13]; [28]
  EC50: 90 nM
[13]
  Selectivity Index: >1110
[14]
  Selectivity Index: >218
[14]; [29]
  EC50: < 30 nM
HPV-16
  EC50: 2230 nM
  Selectivity Index: >4.48
HIV-1LAI
  Selectivity Index: 6.7
HIV-1LAI; [30]
  EC50: 2700 ± 2100 nM
[15]
  CC50: > 10000 nM
[16]
  CC50 at 7 days: 2870 nM

## CCCCCCCCCCCCCCCCCCOCCOP(=O)(COCCn1cnc2c(=O)[nH]c(N)nc21)OCc1ccccc1 (racemic) [Compound 1, benzyl octadecyloxyethyl 9-(2-phosphonomethoxyethyl)guanine]
Hepatitis B virus
  EC50: 440 nM
  Selectivity Index: >226
[1]
  CC50 at 72 h: 36 ± 40 nM
MT-2 cells; Homo sapiens, MT2, 72 h, read-out: CC50, 50% Cytotoxic concentration MT2 cells T cell leukemia
  CC50: 36 ± 40 nM
[2]
  CC50 at 7 days: 63800 nM
[3]
  CC50 at 48 h: > 100000 nM
Caski (HPV-16)
  CC50: 4 nM
  fold more effective in reducing viable cell number in the cervical cancer lines than in normal, non-transformed human fibroblasts: 3,750 fold
[4]
  CC50 at 14 days: 51500 nM
[23]; 4 mg/kg/day oral gavage daily for 5 days
  body weight Day 6: 18.42 ± 1.00 (3)
[23]; 4 mg/kg/day oral gavage
  body weight Day 0: 18.63 ± 0.728 (3)
MAD-1 strain of JC virus; JC polyomavirus, COS-7, 168 h
  EC50: 70 nM
MAD-1 strain of JC virus
  Selectivity Index: 911
HPV-18
  Selectivity Index: 48
  EC50: 210 nM
[6]
  CC50 at 14 days: 3060 nM
HPV-11; HEK293
  EC50: 490 nM
HPV-11
  Selectivity Index: >204
Hela (HPV-18)
  CC50: 9 nM
[8]; [25]
  EC50: < 30 nM
[8]
  Selectivity Index: >1717
[9]
  CC50 at 7 days: > 100000 nM
HIV-192US727
  Selectivity Index: >4.0
HIV-192US727; [26]
  EC50: < 10 nM
[10]
  CC50 at 4 days: 15000 nM
[11]
  CC50: > 10000 nM
[12]
  CC50 at 3 days: > 100000 nM
[14]
  Selectivity Index: >102
[14]; [29]
  EC50: < 30 nM
HPV-16
  EC50: 200 nM
  Selectivity Index: >50
HIV-1LAI
  Selectivity Index: >3600
HIV-1LAI; [30]
  EC50: < 0.01 nM
[15]
  CC50: 10000 nM
In vitro [24]
  CC50: 40 nM
